Literature values in PMC9546217, “Exploring novel nitrofuranyl sulfonohydrazides as anti‐Leishmania and anti‐cancer agents: Synthesis, in vitro efficacy and hit identification” (Chemical Biology & Drug Design, 2022).

Key:
Parameters in all cases: method as in Alsaeedi et al., [2015]
Details in all cases: diffusion method; ref Alsaeedi et al., [2015]; cited from earlier work
[1] = test system: Staphylococcus aureus (ATCC 25923)
[2] = test system: Bacillus subtilis (ATCC 6633)
[3] = test system: Pseudomonas aeruginosa (ATCC 27853)

Measured: antimicrobial activity (inhibition zone)

Cc1ccc(S(=O)(=O)N/N=C/c2ccc([N+](=O)[O-])o2)cc1 [2c, (E)-4-Methyl-N'-[(5-nitrofuran-2-yl)methylene]benzenesulfonohydrazide]
no activity: all assays above
